{"source": "paper PMC8673480", "about": "(Journal of medicinal chemistry, 2021)", "target": "SARS-CoV-2 3CLpro (Severe acute respiratory syndrome coronavirus 2, UniProt P0DTD1)", "experiment": "cell-based", "data": [{"smiles": "CCCC1CCC(COC(=O)NC(CC(C)C)C(=O)NC(C=O)CC2CCNC2=O)CC1", "note": "[Compound 8b, ((1r,4R)-4-Propylcyclohexyl) methyl ((2S)-4-methyl-1-oxo-1-(((2S)-1-oxo-3-(2-oxopyrrolidin-3-yl)propan-2-yl)amino)pentan-2-yl) carbamate]", "values": [{"measurement": "EC50", "value": "1030 ± 490", "unit": "nM"}]}]}
